# In patent publication US9487546B2, “Solid forms of tenofovir” (Gilead Sciences, Inc., priority 2014, dated 2016):
# Tests used:
# Type in all cases: physicochemical
# [1] = XRPD patterns during heating (70, 80, 90° C.), form transition; settings: XRPD patterns at 70, 80, and 90° C. during the heating period
# [2] = Thermogravimetric analysis (TGA) of Form I, dehydration; settings: under nitrogen purge, 10° C./min
# Method: Thermogravimetric analysis (TGA) data was obtained using 2.01 mg PMPA Form I and was heated at a rate of 10° C./min over the range of 25 to 350° C. The solids lost about 6.1% water below 100° C., and the loss is very close to the theoretical water content of 5.9% for PMPA monohydrate.
# [3] = Storage of Form IV in a sealed vial, checked by XRPD; settings: kept in a sealed vial at ambient temperature
# From the text: Form IV was obtained by keeping Form VI in water at ambient temperature for 3 weeks.
Compound,transition from monohydrate (Form I) to an anhydrous form [1],dehydration temperature (TGA) [2],change of sample by XRPD analysis on storage [3]
"C[C@H](Cn1cnc2c(N)ncnc21)OCP(=O)(O)O [Form I, (R)-9-[2-(phosphonomethoxy)propyl]adenine]",around 80 °C,about 50 °C,
"C[C@H](Cn1cnc2c(N)ncnc21)OCP(=O)(O)O [Form IV, (R)-9-[2-(phosphonomethoxy)propyl]adenine]",,,did not change
